According to patent US20050112573A1, “Method of detecting toxic substance” (priority 2001, published 2005):

Tested on: yeast genes (level of expressed mRNA)
Experiment: DNA chip analysis of expressed mRNA of yeast genes after 2 h culture with a toxic chemical substance
Assay type: cell-based, Saccharomyces cerevisiae S288C
Procedure: Yeast (Saccharomyces cerevtisiae S288C (α SUC2mal mel gap2 CUP1)) were cultured at 25° C. on YPD medium (yeast extract 1%, polypepton 2%, glucose 2%). One of toxic chemical substances was added to the cell at logarithmic growth phase, and the cell was further cultured for two hours. Cell was cultured without any chemical substance in the same condition, and was used as control. Concentrations of the chemical substances were defined to inhibit the growth of the yeast but not lead to death.
After the completion of cultivation, the culture was centrifuged to collect the cells. To the cells, sodium acetate buffer (50 mM sodium acetate, 10 mM EDTA, 1% SDS) was added, and the mixture was shaken at 65° C. for five minutes, followed by returning to room temperature, and obtaining the supernatant, which procedure was repeated two times. To the supernatant, ½ amount of a solution of phenol/chloroform was added, and the mixture was centrifuged to give a supernatant, which was added with an equal amount of chloroform, and the mixture was centrifuged to give a supernatant. To the supernatant, an equal amount of isopropanol containing 0.3 M sodium acetate was added, and the mixture was allowed to stand at room temperature for 30 minutes, after which the mixture was centrifuged to give a sediment of the whole RNAs. Seventy % ethanol was added to the sediment, and the mixture was again centrifuged to give a sediment, which was then dried and dissolved in water. mRNA was isolated from the whole RNAs as followings. In view of the fact that a poly A chain is attached to the 3′ terminus of mRNA, a polynucleotide having a poly T structure which was immobilized on the surface of latex beads was used to trap the mRNA, and then the mRNA was washed and eluted with spine column (Oligotex-dT30<Super>mRNA Purification Kit, Takara). Reverse transcription of the mRNA was conducted with a reverse transcriptase (Super Script II Reverse Transcriptase; catalogue No. 18064-014, GibcoBRL) using fluorescence-labeled nucleotides to give cDNAs that were introduced with Cy3-dUTP or Cy5-dUTP during the reverse transcription.
The labeled cDNAs were dissolved in TE buffer (10 mM Tris-HCl/1 mM EDTA, pH8.0), and the solution was dropped on the DNA chip containing the whole genes of yeast (DNA Chip Research Inc. Japan) so that the cDNAs were hybridized on the DNA chip at 65° C. for over 12 hours. The fluoresces intensity of the DNA chip was read with a scanner, and the ratio relative to the fluorescence intensity resulting from the absence of chemical substance was estimated as the following, which is shown in Tables 1 to 9: [formula]
In the Tables, “Intensity” indicated in the rightmost column is a value of the level of expressed mRNA of each gene in control cells as divided by the average level of the expressions of the whole genes.

## manganese ethylenebis(dithiocarbamate) [(8)]
Yeast gene YFL010C, ratio to control without chemical substance, 2 h culture
  The level of expressed mRNA in the presence of chemical substance/: 1.0
Yeast gene YFL024C, ratio to control without chemical substance, 2 h culture
  The level of expressed mRNA in the presence of chemical substance/: 0.9
Yeast gene YFL028C
  The level of expressed mRNA in the presence of chemical substance/The level of expressed mRNA in the absence of chemical substance: 1.5
Yeast gene YFL032W, ratio to control without chemical substance, 2 h culture
  The level of expressed mRNA in the presence of chemical substance/: 0.4
Yeast gene YFL043C
  The level of expressed mRNA in the presence of chemical substance/The level of expressed mRNA in the absence of chemical substance: 1.0
Yeast gene YGL035C
  The level of expressed mRNA in the presence of chemical substance/in the absence of chemical substance: 1.3
Yeast gene YGL037C, ratio to control without chemical substance, 2 h culture
  The level of expressed mRNA in the presence of chemical substance/: 1.2
Yeast gene YGL047W, ratio to control without chemical substance, 2 h culture
  The level of expressed mRNA in the presence of chemical substance/: 1.1
Yeast gene YGL053W, ratio to control without chemical substance, 2 h culture
  The level of expressed mRNA in the presence of chemical substance/: 1.2
Yeast gene YGL121C, ratio to control without chemical substance, 2 h culture
  The level of expressed mRNA in the presence of chemical substance/: 3.0
Yeast gene YGL158W
  The level of expressed mRNA in the presence of chemical substance/The level of expressed mRNA in the absence of chemical substance: 1.3
Yeast gene YGL199C, ratio to control without chemical substance, 2 h culture
  The level of expressed mRNA in the presence of chemical substance/: 0.7
Yeast gene YGL229C
  The level of expressed mRNA in the presence of chemical substance/The level of expressed mRNA in the absence of chemical substance: 0.7
Yeast gene YGR101W, ratio to control without chemical substance, 2 h culture
  The level of expressed mRNA in the presence of chemical substance/: 0.8
Yeast gene YGR110W, ratio to control without chemical substance, 2 h culture
  The level of expressed mRNA in the presence of chemical substance/: 1.5
Yeast gene YGR130C, ratio to control without chemical substance, 2 h culture
  The level of expressed mRNA in the presence of chemical substance/: 0.9
Yeast gene YGR136W
  The level of expressed mRNA in the presence of chemical substance/The level of expressed mRNA in the absence of chemical substance: 1.3
Yeast gene YGR154C, ratio to control without chemical substance, 2 h culture
  The level of expressed mRNA in the presence of chemical substance/: 1.7
Yeast gene YGR189C
  The level of expressed mRNA in the presence of chemical substance/The level of expressed mRNA in the absence of chemical substance: 1.0
Yeast gene YGR213C
  The level of expressed mRNA in the presence of chemical substance/The level of expressed mRNA in the absence of chemical substance: 2.0
Yeast gene YGR221C, ratio to control without chemical substance, 2 h culture
  The level of expressed mRNA in the presence of chemical substance/: 1.1
Yeast gene YGR257C
  The level of expressed mRNA in the presence of chemical substance/The level of expressed mRNA in the absence of chemical substance: 1.0
Yeast gene YGR287C
  The level of expressed mRNA in the presence of chemical substance/in the absence of chemical substance: 1.3
Yeast gene YHR004C
  The level of expressed mRNA in the presence of chemical substance/The level of expressed mRNA in the absence of chemical substance: 0.9
Yeast gene YHR071W
  The level of expressed mRNA in the presence of chemical substance/The level of expressed mRNA in the absence of chemical substance: 1.7
Yeast gene YHR138C, ratio to control without chemical substance, 2 h culture
  The level of expressed mRNA in the presence of chemical substance/: 1.4
Yeast gene YHR139C
  The level of expressed mRNA in the presence of chemical substance/The level of expressed mRNA in the absence of chemical substance: 1.3
Yeast gene YHR142W
  The level of expressed mRNA in the presence of chemical substance/The level of expressed mRNA in the absence of chemical substance: 1.3
Yeast gene YHR199C, ratio to control without chemical substance, 2 h culture
  The level of expressed mRNA in the presence of chemical substance/: 1.0
Yeast gene YIL023C, ratio to control without chemical
  The level of expressed mRNA in the presence of chemical substance/: 0.7
Yeast gene YIL041W, ratio to control without chemical substance, 2 h culture
  The level of expressed mRNA in the presence of chemical substance/: 0.9
Yeast gene YIL087C, ratio to control without chemical substance, 2 h culture
  The level of expressed mRNA in the presence of chemical substance/: 1.1
Yeast gene YIL123W
  The level of expressed mRNA in the presence of chemical substance/The level of expressed mRNA in the absence of chemical substance: 0.6
Yeast gene YIL140W
  The level of expressed mRNA in the presence of chemical substance/The level of expressed mRNA in the absence of chemical substance: 0.7
Yeast gene YJL057C, ratio to control without chemical substance, 2 h culture
  The level of expressed mRNA in the presence of chemical substance/: 1.5
Yeast gene YJL066C, ratio to control without chemical substance, 2 h culture
  The level of expressed mRNA in the presence of chemical substance/: 0.8
Yeast gene YJL070C
  The level of expressed mRNA in the presence of chemical substance/in the absence of chemical substance: 1.1
Yeast gene YJL073W
  The level of expressed mRNA in the presence of chemical substance/The level of expressed mRNA in the absence of chemical substance: 1.0
Yeast gene YJL082W, ratio to control without chemical substance, 2 h culture
  The level of expressed mRNA in the presence of chemical substance/: 0.9
Yeast gene YJL089W
  The level of expressed mRNA in the presence of chemical substance/The level of expressed mRNA in the absence of chemical substance: 1.1
Yeast gene YJL116C
  The level of expressed mRNA in the presence of chemical substance/The level of expressed mRNA in the absence of chemical substance: 1.8
Yeast gene YJL151C, ratio to control without chemical substance, 2 h culture
  The level of expressed mRNA in the presence of chemical substance/: 0.8
Yeast gene YJL152W, ratio to control without chemical substance, 2 h culture
  The level of expressed mRNA in the presence of chemical substance/: 0.7
Yeast gene YJL161W, ratio to control without chemical substance, 2 h culture
  The level of expressed mRNA in the presence of chemical substance/: 1.4
Yeast gene YJL167W
  The level of expressed mRNA in the presence of chemical substance/in the absence of chemical substance: 1.5
Yeast gene YJL171C, ratio to control without chemical substance, 2 h culture
  The level of expressed mRNA in the presence of chemical substance/: 0.9
Yeast gene YJL216C
  The level of expressed mRNA in the presence of chemical substance/in the absence of chemical substance: 1.9
Yeast gene YJR004C
  The level of expressed mRNA in the presence of chemical substance/The level of expressed mRNA in the absence of chemical substance: 0.4
Yeast gene YJR008W, ratio to control without chemical substance, 2 h culture
  The level of expressed mRNA in the presence of chemical substance/: 1.1
Yeast gene YJR054W, ratio to control without chemical
  The level of expressed mRNA in the presence of chemical substance/: 1.6
Yeast gene YJR086W
  The level of expressed mRNA in the presence of chemical substance/The level of expressed mRNA in the absence of chemical substance: 1.1
Yeast gene YKL008C
  The level of expressed mRNA in the presence of chemical substance/The level of expressed mRNA in the absence of chemical substance: 1.2
Yeast gene YKL013C
  The level of expressed mRNA in the presence of chemical substance/The level of expressed mRNA in the absence of chemical substance: 0.9
Yeast gene YKL039W
  The level of expressed mRNA in the presence of chemical substance/The level of expressed mRNA in the absence of chemical substance: 0.8
Yeast gene YKL041W
  The level of expressed mRNA in the presence of chemical substance/The level of expressed mRNA in the absence of chemical substance: 1.6
Yeast gene YKL071W, ratio to control without chemical substance, 2 h culture
  The level of expressed mRNA in the presence of chemical substance/: 24.7
